From PubChem BioAssay (NCI)
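Abbreviation: GI50, concentration required for 50% inhibition of growth. TGI: total growth inhibition.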

Tests used:
Experiment in all cases: growth of human tumour cells (NCI), 384-well format
UACC-62 melanoma = tested on: UACC-62 melanoma
T-47D breast = tested on: T-47D breast
NCI-H522 lung = tested on: NCI-H522 lung
TK-10 renal = tested on: TK-10 renal
COLO 205 colon = tested on: COLO 205 colon
CCRF-CEM leukemia = tested on: CCRF-CEM leukemia
PC-3 prostate = tested on: PC-3 prostate
MDA-MB-468 breast = tested on: MDA-MB-468 breast
EKVX NSCLC = tested on: EKVX NSCLC
KM12 colon = tested on: KM12 colon
IGROV1 ovarian = tested on: IGROV1 ovarian
UO-31 renal = tested on: UO-31 renal
HCT-116 colon = tested on: HCT-116 colon
NCI-H322M lung = tested on: NCI-H322M lung
SR leukemia = tested on: SR leukemia
HCC-2998 colon = tested on: HCC-2998 colon
SW-620 colon = tested on: SW-620 colon
HOP-62 NSCLC = tested on: HOP-62 NSCLC
UACC-257 melanoma = tested on: UACC-257 melanoma
CAKI-1 renal = tested on: CAKI-1 renal
SK-MEL-28 melanoma = tested on: SK-MEL-28 melanoma
MOLT-4 leukemia = tested on: MOLT-4 leukemia
BT-549 breast = tested on: BT-549 breast
MALME-3M melanoma = tested on: MALME-3M melanoma
K-562 leukemia = tested on: K-562 leukemia
LOX IMVI melanoma = tested on: LOX IMVI melanoma
HOP-92 NSCLC = tested on: HOP-92 NSCLC
NCI/ADR-RES ovarian = tested on: NCI/ADR-RES ovarian
U251 glioblastoma = tested on: U251 glioblastoma
RPMI-8226 leukemia = tested on: RPMI-8226 leukemia
MDA-MB-435 melanoma = tested on: MDA-MB-435 melanoma
SF-268 CNS = tested on: SF-268 CNS
SN12C renal = tested on: SN12C renal
786-0 renal = tested on: 786-0 renal
HS 578T breast = tested on: HS 578T breast
OVCAR-8 ovarian = tested on: OVCAR-8 ovarian
MDA-MB-231 breast = tested on: MDA-MB-231 breast
SK-OV-3 ovarian = tested on: SK-OV-3 ovarian
MCF7 breast = tested on: MCF7 breast
NCI-H23 lung = tested on: NCI-H23 lung
NCI-H460 NSCLC = tested on: NCI-H460 NSCLC
A549 NSCLC = tested on: A549 NSCLC
RXF 393 renal = tested on: RXF 393 renal
OVCAR-3 ovarian = tested on: OVCAR-3 ovarian
M14 melanoma = tested on: M14 melanoma
SNB-19 CNS = tested on: SNB-19 CNS
NCI-H226 lung = tested on: NCI-H226 lung
SF-295 CNS = tested on: SF-295 CNS
HT29 colon = tested on: HT29 colon
A498 renal = tested on: A498 renal
HCT-15 colon = tested on: HCT-15 colon
SNB-75 CNS = tested on: SNB-75 CNS
ACHN renal = tested on: ACHN renal
DU-145 prostate = tested on: DU-145 prostate
OVCAR-4 ovarian = tested on: OVCAR-4 ovarian
SK-MEL-5 melanoma = tested on: SK-MEL-5 melanoma
SF-539 CNS = tested on: SF-539 CNS
HL-60(TB) leukemia = tested on: HL-60(TB) leukemia
SK-MEL-2 melanoma = tested on: SK-MEL-2 melanoma
OVCAR-5 ovarian = tested on: OVCAR-5 ovarian

## CN(C)CCCOc1ccc(-c2ccc3ncc4c(c3c2)n(C2CCOCC2)c(=O)n4C)cn1
UACC-62 melanoma
  GI50: 4.33 µM
  TGI: 23.3 µM
T-47D breast
  GI50: 1.22 µM
  TGI: 11.7 µM
NCI-H522 lung
  GI50: 3.48 µM
  TGI: > 100 µM
TK-10 renal
  GI50: 3000 nM
  TGI: 49.5 µM
COLO 205 colon
  GI50: 2.17 µM
  TGI: 13.5 µM
CCRF-CEM leukemia
  GI50: 1950 nM
  TGI: 10 µM
PC-3 prostate
  GI50: 1730 nM
  TGI: 12 µM
MDA-MB-468 breast
  GI50: 2470 nM
  TGI: 19.9 µM
EKVX NSCLC
  GI50: 2.39 µM
  TGI: > 100 µM
KM12 colon
  GI50: 2.67 µM
  TGI: 26 µM
IGROV1 ovarian
  GI50: 1170 nM
  TGI: 6.42 µM
UO-31 renal
  GI50: 4.78 µM
  TGI: > 100 µM
HCT-116 colon
  GI50: 6.44 µM
  TGI: 55.7 µM
NCI-H322M lung
  GI50: 3.21 µM
  TGI: 36.7 µM
SR leukemia
  GI50: 172 nM
  TGI: 445 nM
HCC-2998 colon
  GI50: 3.12 µM
  TGI: > 100 µM
SW-620 colon
  GI50: 4.91 µM
  TGI: > 100 µM
HOP-62 NSCLC
  GI50: 3.81 µM
  TGI: > 100 µM
UACC-257 melanoma
  GI50: > 100000 nM
  TGI: > 100 µM
CAKI-1 renal
  GI50: 1450 nM
  TGI: 6.38 µM
SK-MEL-28 melanoma
  GI50: 5.73 µM
  TGI: > 100 µM
MOLT-4 leukemia
  GI50: 1390 nM
  TGI: 4.71 µM
BT-549 breast
  GI50: 3560 nM
  TGI: 30 µM
MALME-3M melanoma
  GI50: 1240 nM
  TGI: 6.1 µM
K-562 leukemia
  GI50: 7.55 µM
  TGI: 30.6 µM
LOX IMVI melanoma
  GI50: 2450 nM
  TGI: 14.5 µM
HOP-92 NSCLC
  GI50: 3.45 µM
  TGI: 20.2 µM
NCI/ADR-RES ovarian
  GI50: > 100 µM
  TGI: > 100 µM
U251 glioblastoma
  GI50: > 100 µM
  TGI: > 100 µM
RPMI-8226 leukemia
  GI50: 738 nM
  TGI: 2.39 µM
MDA-MB-435 melanoma
  GI50: 6.28 µM
  TGI: > 100 µM
SF-268 CNS
  GI50: 4.23 µM
  TGI: > 100 µM
SN12C renal
  GI50: 2320 nM
  TGI: 32.8 µM
786-0 renal
  GI50: 5.99 µM
  TGI: > 100 µM
HS 578T breast
  GI50: 1470 nM
  TGI: 4.14 µM
OVCAR-8 ovarian
  GI50: 5.22 µM
  TGI: > 100 µM
MDA-MB-231 breast
  GI50: 2080 nM
  TGI: > 100 µM
SK-OV-3 ovarian
  GI50: 2450 nM
  TGI: 71.9 µM
MCF7 breast
  GI50: 1.91 µM
  TGI: > 100 µM
NCI-H23 lung
  GI50: 8.22 µM
  TGI: > 100 µM
NCI-H460 NSCLC
  GI50: 1500 nM
  TGI: 96.2 µM
A549 NSCLC
  GI50: 3.91 µM
  TGI: > 100 µM
RXF 393 renal
  GI50: 5.05 µM
  TGI: > 100000 nM
OVCAR-3 ovarian
  GI50: 1690 nM
  TGI: 4.86 µM
M14 melanoma
  GI50: 3.32 µM
  TGI: > 100 µM
SNB-19 CNS
  GI50: 22.9 µM
  TGI: > 100 µM
NCI-H226 lung
  GI50: 3.73 µM
  TGI: > 100 µM
SF-295 CNS
  GI50: 2.95 µM
  TGI: > 100 µM
HT29 colon
  GI50: 4.36 µM
  TGI: 27.8 µM
A498 renal
  GI50: 2540 nM
  TGI: > 100 µM
HCT-15 colon
  GI50: 5.01 µM
  TGI: > 100 µM
SNB-75 CNS
  GI50: 2760 nM
  TGI: > 100000 nM
ACHN renal
  GI50: 5.21 µM
  TGI: > 100 µM
DU-145 prostate
  GI50: 4.92 µM
  TGI: > 100 µM
OVCAR-4 ovarian
  GI50: 7.94 µM
  TGI: > 100 µM
SK-MEL-5 melanoma
  GI50: 2230 nM
  TGI: > 100 µM
SF-539 CNS
  GI50: 3850 nM
  TGI: > 100 µM
HL-60(TB) leukemia
  GI50: 2950 nM
  TGI: 11 µM

## COc1cc(OC)cc(N(CCNC(C)C)c2ccc3ncc(-c4cnn(C)c4)nc3c2)c1
UACC-62 melanoma
  GI50: 3.49 µM
  TGI: 12.4 µM
T-47D breast
  GI50: 6.41 µM
  TGI: 12.6 µM
NCI-H522 lung
  GI50: 3.44 µM
  TGI: 10.3 µM
TK-10 renal
  GI50: 2790 nM
  TGI: 10.1 µM
COLO 205 colon
  GI50: 4.59 µM
  TGI: 12.6 µM
PC-3 prostate
  GI50: 3610 nM
  TGI: 13.1 µM
MDA-MB-468 breast
  GI50: 2010 nM
  TGI: 4.47 µM
EKVX NSCLC
  GI50: 7.26 µM
  TGI: 15.7 µM
KM12 colon
  GI50: 4.88 µM
  TGI: 16.1 µM
IGROV1 ovarian
  GI50: 2190 nM
  TGI: 5.78 µM
UO-31 renal
  GI50: 3.04 µM
  TGI: 8.81 µM
HCT-116 colon
  GI50: 2.96 µM
  TGI: 9.31 µM
SK-MEL-2 melanoma
  GI50: 2150 nM
  TGI: 4.8 µM
NCI-H322M lung
  GI50: 3.88 µM
  TGI: 12.9 µM
SR leukemia
  GI50: 1570 nM
  TGI: 2940 nM
HCC-2998 colon
  GI50: 4.52 µM
  TGI: 9.47 µM
SW-620 colon
  GI50: 4.34 µM
  TGI: 14.2 µM
HOP-62 NSCLC
  GI50: 4.16 µM
  TGI: 13 µM
UACC-257 melanoma
  GI50: 2280 nM
  TGI: 4.72 µM
CAKI-1 renal
  GI50: 1590 nM
  TGI: 4.16 µM
SK-MEL-28 melanoma
  GI50: 6.2 µM
  TGI: 16.4 µM
MOLT-4 leukemia
  GI50: 1510 nM
  TGI: 2.93 µM
BT-549 breast
  GI50: 630 nM
  TGI: 5.83 µM
MALME-3M melanoma
  GI50: 2270 nM
  TGI: 4.97 µM
K-562 leukemia
  GI50: 0.89 µM
  TGI: 2.15 µM
LOX IMVI melanoma
  GI50: 2710 nM
  TGI: 6.09 µM
HOP-92 NSCLC
  GI50: 2.91 µM
  TGI: 9.38 µM
NCI/ADR-RES ovarian
  GI50: 3.56 µM
  TGI: 11.8 µM
U251 glioblastoma
  GI50: 5.92 µM
  TGI: 14.8 µM
RPMI-8226 leukemia
  GI50: 3680 nM
  TGI: 12.3 µM
MDA-MB-435 melanoma
  GI50: 3.49 µM
  TGI: 10.6 µM
SF-268 CNS
  GI50: 4.42 µM
  TGI: 15.9 µM
SN12C renal
  GI50: 3190 nM
  TGI: 10.8 µM
786-0 renal
  GI50: 2.17 µM
  TGI: 5.11 µM
HS 578T breast
  GI50: 1500 nM
  TGI: 3.73 µM
OVCAR-8 ovarian
  GI50: 5.09 µM
  TGI: 14.1 µM
MDA-MB-231 breast
  GI50: 2750 nM
  TGI: 8.18 µM
SK-OV-3 ovarian
  GI50: 2010 nM
  TGI: 5.35 µM
MCF7 breast
  GI50: 7.81 µM
  TGI: 15.3 µM
NCI-H23 lung
  GI50: 4.66 µM
  TGI: 13.5 µM
OVCAR-5 ovarian
  GI50: 5.47 µM
  TGI: 17 µM
NCI-H460 NSCLC
  GI50: 2630 nM
  TGI: 7.1 µM
A549 NSCLC
  GI50: 3.73 µM
  TGI: 11.2 µM
RXF 393 renal
  GI50: 1.02 µM
  TGI: 2890 nM
OVCAR-3 ovarian
  GI50: 3620 nM
  TGI: 13.1 µM
M14 melanoma
  GI50: 2.85 µM
  TGI: 7.68 µM
SNB-19 CNS
  GI50: 9.29 µM
  TGI: 22 µM
NCI-H226 lung
  GI50: 2.57 µM
  TGI: 11 µM
SF-295 CNS
  GI50: 9.3 µM
  TGI: 18.3 µM
HT29 colon
  GI50: 3.97 µM
  TGI: 11.2 µM
A498 renal
  GI50: 2680 nM
  TGI: 8.53 µM
HCT-15 colon
  GI50: 2.99 µM
  TGI: 10.1 µM
SNB-75 CNS
  GI50: 132 nM
  TGI: 1690 nM
ACHN renal
  GI50: 2.03 µM
  TGI: 5.45 µM
DU-145 prostate
  GI50: 4.12 µM
  TGI: 14 µM
OVCAR-4 ovarian
  GI50: 4.66 µM
  TGI: 17.1 µM
SK-MEL-5 melanoma
  GI50: 1660 nM
  TGI: 3.66 µM
SF-539 CNS
  GI50: 946 nM
  TGI: 7.77 µM
HL-60(TB) leukemia
  GI50: 2510 nM
  TGI: 4.65 µM
